Reference: patent US9932637B2, “Genetic polymorphisms associated with cardiovascular disorders and drug response, methods of detection and uses thereof” (CELERA CORPORATION, priority 2003, dated 2018)

System: patients with prior myocardial infarction (CARE study)
Assay: CARE: association of SNPs with pravastatin treatment in cardiovascular events prevention (logistic regression, odds ratio pravastatin vs placebo by genotype; Table 8)
Format: in vivo, human
Conditions: for Definite Nonfatal MI, n/total (%) / Fatal CHD/Definite Nonfatal MI, n/total (%): CD6 hCV25922320, All Patients; for Fatal/Nonfatal MI (def & prob), n/total (%) / MI (Fatal/Nonfatal), n/total (%) / Nonfatal MI (def & prob), n/total (%): COL11A1 hCV8400671, All Patients
Source text: In order to identify genetic markers associated with acute coronary events (e.g. MI, stroke, unstable angina, congestive heart failure, etc.) or response to statin treatment for the prevention of coronary events, samples from the Cholesterol and Recurrent Events (CARE) study (a randomized multicentral double-blinded trial on secondary prevention of acute coronary events with pravastatin) (Sacks et al., 1991, Am. J. Cardiol. 68: 1436-1446) were genotyped. A well-documented myocardial infarction (MI) was one of the enrollment criteria for entry into the CARE study. Patients were enrolled in the CARE trial from 80 participating study centers. […] Patients were randomized to receive either 40 mg of pravastatin once daily or a matching placebo. The primary endpoint of the trial was death from coronary heart disease and the median duration of follow-up was 5.0 years (range, 4.0 to 6.2 years). […] Secondary endpoints of other related cardiovascular or metabolic disease events, and changes in clinical variables were also recorded in pravastatin-treated and placebo groups. All individuals included in the study had signed a written informed consent form and the study protocol was approved by the respective Institutional Review Boards (IRBs).
For genotyping SNPs in CARE patient samples, DNA was extracted from blood samples using conventional DNA extraction methods such as the QIA-amp kit from Qiagen. Genotypes were obtained on an ABI PRISM® 7900HT Sequence Detection PCR system (Applied Biosystems, Foster City, Calif.) by kinetic allele-specific PCR, similar to the method described by Germer et al. (Germer S., Holland M. J., Higuchi R. 2000, Genome Res. 10: 258-266).
Statistical analysis for association of SNPs with pravastatin treatment in cardiovascular events prevention (Table 8) was carried out using an overall logistic regression model that included an intercept, a parameter for the effect of a genotype containing two rare alleles versus a genotype containing no rare alleles, a parameter for the effect of a genotype containing one rare allele versus a genotype containing no rare alleles, a parameter for the effect of use of pravastatin versus the use of placebo, and parameters for the interaction effects between SNP genotypes and pravastatin use. The test of the overall model is a chi-square test with two degrees of freedom for analyses containing all three genotypes, and one degree of freedom for analyses containing two genotypes.
Effect sizes were estimated through odds ratios (pravastatin group versus placebo) for carriers of each genotype (groups of 0, 1, and 2 minor allele carriers). The effect was considered to be significant if p-value for testing whether any of the interactions between SNP genotypes and pravastatin use were <0.05. […] Odds ratios less than one indicate that the specific SNP allele has a protective effect and odds ratios greater than one indicate that the specific SNP allele has an adverse effect.

[1] = CCL11 hCV7449808, All Patients, 2 Rare Alleles, Prava, n/total 9/34
[2] = CCL11 hCV7449808, All Patients, Fatal/Non-fatal Atherosclerotic CV Disease
[3] = CCL11 hCV7449808, All Patients, Hosp. for Cardiovascular Disease
[4] = CCL11 hCV7449808, All Patients, Total Cardiovascular Disease Events
[5] = CCL11 hCV7449808, All Patients, Total Coronary Heart Disease Events
[6] = CD6 hCV2553030, All Patients, 0 Rare Alleles, Prava arm
[7] = CD6 hCV2553030, All Patients, 1 Rare Allele, Prava arm
[8] = CD6 hCV2553030, All Patients, 2 Rare Alleles, Prava arm
[9] = CHUK hCV1345898, All Patients, Hosp. for Unstable Angina
[10] = CHUK hCV1345898, All Patients, Non-fatal MI (def & prob)

With `CC[C@H](C)C(=O)O[C@H]1C[C@H](O)C=C2C=C[C@H](C)[C@H](CC[C@@H](O)C[C@@H](O)CC(=O)O)[C@H]21` [pravastatin] the “Total Coronary Heart Disease Events, n/total (%)” value (CCL11 hCV7449808, All Patients, 2 Rare Alleles, Prava, n/total 4/34) was “(11.8%)”, the “Fatal/Non-fatal Atherosclerotic CV Disease, n/total (%)” value (CCL11 hCV7449808, All Patients, 2 Rare Alleles, Prava, n/total 7/34) was “(20.6%)” and the “Hosp. for Cardiovascular Disease, n/total (%)” value [1] was “(26.5%)”. For the same compound, the “Total Cardiovascular Disease Events, n/total (%)” value [1] was “(26.5%)”, the “Prava vs. Placebo Odds Ratio, 0 Rare Alleles” value [2] was 0.80 and the “Prava vs. Placebo Odds Ratio, 1 Rare Alleles” value [2] was 0.82. For the same compound, the “Prava vs. Placebo Odds Ratio, 2 Rare Alleles” value [2] was 0.21, the “Prava vs. Placebo Odds Ratio, 0 Rare Alleles” value [3] was 0.76 and the “Prava vs. Placebo Odds Ratio, 1 Rare Alleles” value [3] was 0.91. The “Prava vs. Placebo Odds Ratio, 2 Rare Alleles” value [3] was 0.16, the “Prava vs. Placebo Odds Ratio, 0 Rare Alleles” value [4] was 0.77 and the “Prava vs. Placebo Odds Ratio, 1 Rare Alleles” value [4] was 0.88. The “Prava vs. Placebo Odds Ratio, 2 Rare Alleles” value [4] was 0.14, the “Prava vs. Placebo Odds Ratio, 0 Rare Alleles” value [5] was 0.80 and the “Prava vs. Placebo Odds Ratio, 1 Rare Alleles” value [5] was 0.84. For the same compound, the “Prava vs. Placebo Odds Ratio, 2 Rare Alleles” value [5] was 0.16, the “Hosp. for Cardiovascular Disease, n/total (%)” value [6] was “(41.5%)” and the “Total Cardiovascular Disease Events, n/total (%)” value [6] was “(43.2%)”. The “Hosp. for Cardiovascular Disease, n/total (%)” value [7] was “(39.9%)”, the “Total Cardiovascular Disease Events, n/total (%)” value [7] was “(40.3%)” and the “Hosp. for Cardiovascular Disease, n/total (%)” value [8] was “(31.3%)”. For the same compound, the “Total Cardiovascular Disease Events, n/total (%)” value [8] was “(33.0%)”, the “Odds ratio pravastatin vs placebo” value (CD6 hCV2553030, All Patients, Hosp. for Cardiovascular Disease, 0 rare alleles) was 0.81 and the “Odds ratio pravastatin vs placebo” value (CD6 hCV2553030, All Patients, Hosp. for Cardiovascular Disease, 1 rare allele) was 0.78. The “Odds ratio pravastatin vs placebo” value (CD6 hCV2553030, All Patients, Hosp. for Cardiovascular Disease, 2 rare alleles) was 0.37, the “Odds ratio pravastatin vs placebo” value (CD6 hCV2553030, All Patients, Total Cardiovascular Disease Events, 0 rare alleles) was 0.83 and the “Odds ratio pravastatin vs placebo” value (CD6 hCV2553030, All Patients, Total Cardiovascular Disease Events, 1 rare allele) was 0.74. For the same compound, the “Odds ratio pravastatin vs placebo” value (CD6 hCV2553030, All Patients, Total Cardiovascular Disease Events, 2 rare alleles) was 0.38, the “Definite Nonfatal MI, n/total (%)” value (0 Rare Alleles, Prava arm) was “(5.7%)” and the “Fatal CHD/Definite Nonfatal MI, n/total (%)” value (0 Rare Alleles, Prava arm) was “(7.7%)”. The “Definite Nonfatal MI, n/total (%)” value (1 Rare Allele, Prava arm) was “(9.2%)”, the “Fatal CHD/Definite Nonfatal MI, n/total (%)” value (1 Rare Allele, Prava arm) was “(12.3%)” and the “Definite Nonfatal MI, n/total (%)” value (2 Rare Alleles, Prava arm) was “(4.8%)”. For the same compound, the “Fatal CHD/Definite Nonfatal MI, n/total (%)” value (2 Rare Alleles, Prava arm) was “(9.7%)”, the “Odds ratio pravastatin vs placebo” value (CD6 hCV25922320, All Patients, Definite Nonfatal MI, 0 rare alleles) was 0.52 and the “Odds ratio pravastatin vs placebo” value (CD6 hCV25922320, All Patients, Definite Nonfatal MI, 1 rare allele) was 1.12. The “Odds ratio pravastatin vs placebo” value (CD6 hCV25922320, All Patients, Definite Nonfatal MI, 2 rare alleles) was 0.63, the “Odds ratio pravastatin vs placebo” value (CD6 hCV25922320, All Patients, Fatal CHD/Definite Nonfatal MI, 2 rare alleles) was 0.92 and the “Non-fatal MI (def & prob), n/total (%)” value (CHUK hCV1345898, All Patients, 0 Rare Alleles, Prava, n/total 47/413) was “(11.4%)”. The “Hosp. for Unstable Angina, n/total (%)” value (CHUK hCV1345898, All Patients, 0 Rare Alleles, Prava, n/total 68/413) was “(16.5%)”, the “Non-fatal MI (def & prob), n/total (%)” value (CHUK hCV1345898, All Patients, 1 Rare Allele, Prava, n/total 69/734) was “(9.4%)” and the “Hosp. for Unstable Angina, n/total (%)” value (CHUK hCV1345898, All Patients, 1 Rare Allele, Prava, n/total 110/734) was “(15.0%)”. For the same compound, the “Non-fatal MI (def & prob), n/total (%)” value (CHUK hCV1345898, All Patients, 2 Rare Alleles, Prava, n/total 17/354) was “(4.8%)”, the “Hosp. for Unstable Angina, n/total (%)” value (CHUK hCV1345898, All Patients, 2 Rare Alleles, Prava, n/total 51/354) was “(14.4%)” and the “Prava vs. Placebo Odds Ratio, 0 Rare Alleles” value [9] was 1.38. The “Prava vs. Placebo Odds Ratio, 1 Rare Alleles” value [9] was 0.76, the “Prava vs. Placebo Odds Ratio, 2 Rare Alleles” value [9] was 0.59 and the “Prava vs. Placebo Odds Ratio, 0 Rare Alleles” value [10] was 0.86. The “Prava vs. Placebo Odds Ratio, 1 Rare Alleles” value [10] was 0.77, the “Prava vs. Placebo Odds Ratio, 2 Rare Alleles” value [10] was 0.34 and the “Fatal/Nonfatal MI (def & prob), n/total (%)” value (shortened to “Fatal/Nonfatal MI … (%)”) (0 Rare Alleles, Prava arm) was “(10.6%)”. For the same compound, the “MI (Fatal/Nonfatal), n/total (%)” value (0 Rare Alleles, Prava arm) was “(10.7%)”, the “Nonfatal MI (def & prob), n/total (%)” value (0 Rare Alleles, Prava arm) was “(9.6%)” and the “Fatal/Nonfatal MI … (%)” value (1 Rare Allele, Prava arm) was “(8.2%)”. For the same compound, the “MI (Fatal/Nonfatal), n/total (%)” value (1 Rare Allele, Prava arm) was “(8.6%)”, the “Nonfatal MI (def & prob), n/total (%)” value (1 Rare Allele, Prava arm) was “(7.7%)” and the “Fatal/Nonfatal MI … (%)” value (2 Rare Alleles, Prava arm) was “(4.1%)”. For the same compound, the “MI (Fatal/Nonfatal), n/total (%)” value (2 Rare Alleles, Prava arm) was “(4.1%)”.
